This passage reports TGI and GI50 results from PubChem BioAssay (NCI).

Some test systems named below: HT29 colon; NCI-H460 lung; CCRF-CEM leukemia; HOP-62 NSCLC; NCI-H23 lung; 786-0 renal; SK-MEL-2 melanoma; NCI-H226 lung; MALME-3M melanoma; BT-549 breast.
Holding throughout (assay): growth of human tumour cells (NCI), 48 h

SMILES strings stand for the structures.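 Method: 48-hour compound exposure of cells in 96-well plates, five concentrations, linear interpolation of endpoints. GI50 = concentration required for 50% inhibition of growth. TGI is the concentration that stops growth completely.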

Regarding `Clc1ncnc2c1ncn2CCCCCCCCCCCCn1cnc2c(Cl)ncnc21`, the TGI in the assay on HT29 colon is 21.5 µM; in the assay with NCI-H460 lung, 31.8 µM; in the assay on CCRF-CEM leukemia it was above 100 µM; in the assay with HOP-62 NSCLC, 33 µM; with NCI-H23 lung, 10.8 µM; in the assay with 786-0 renal, 71.8 µM. Also, the TGI was found to be 26.4 µM in the assay on SK-MEL-2 melanoma and 24.5 µM in the assay with NCI-H226 lung.
Take `COC(=O)CCN(CCC(=O)OC)C1CC1`: the TGI in the assay with MALME-3M melanoma, with HT29 colon, in the assay on NCI-H460 lung, in the assay with CCRF-CEM leukemia, in the assay with HOP-62 NSCLC and with NCI-H23 lung was above 100 µM throughout. Further, the TGI with 786-0 renal and in the assay on NCI-H226 lung was above 100 µM each time.
As to `CC(=O)NC1=C(NCc2ccc(Cl)cc2)C(=O)c2ccccc2C1=O`, the TGI with MALME-3M melanoma is 16.5 µM; in the assay with HT29 colon it was above 50 µM; in the assay with NCI-H460 lung it was above 50 µM; with CCRF-CEM leukemia, 32.3 µM; in the assay on HOP-62 NSCLC, above 50 µM; in the assay on NCI-H23 lung, 13.5 µM. The TGI in the assay with 786-0 renal amounted to 15.7 µM; in the assay with SK-MEL-2 melanoma, 12.2 µM; with NCI-H226 lung, 26.1 µM.
Consider `OCC(O)C(O)C(O)C(/C=N\Nc1ncnc2ccc(Br)cc12)=N/Nc1ncnc2ccc(Br)cc12` (configuration not stated), for which the TGI with MALME-3M melanoma was 57 µM; in the assay with HT29 colon, above 100 µM; with HOP-62 NSCLC it was above 100 µM; with 786-0 renal, above 100 µM; in the assay on SK-MEL-2 melanoma it was above 100 µM; with NCI-H226 lung, above 100 µM.
`CC(C)(NC1=NCCO1)c1ccccc1`: the TGI in the assay with MALME-3M melanoma, in the assay with HT29 colon, with NCI-H460 lung, in the assay on HOP-62 NSCLC, in the assay with NCI-H23 lung and with 786-0 renal was above 100 µM throughout. Besides, the TGI with SK-MEL-2 melanoma and with NCI-H226 lung was above 100 µM throughout.
Take `CCOC(=O)N(C)C1(c2ccccc2)CCN(CCCC(=O)c2ccc(F)cc2)CC1`: the TGI with MALME-3M melanoma was 30 µM; with HT29 colon it was 38.1 µM; in the assay with NCI-H460 lung it was above 100 µM; with CCRF-CEM leukemia it was above 100 µM; in the assay on HOP-62 NSCLC, above 100 µM; in the assay on NCI-H23 lung, above 100 µM. The TGI in the assay with 786-0 renal was 88.7 µM; in the assay with SK-MEL-2 melanoma, 53.5 µM; in the assay on NCI-H226 lung, above 100 µM.
For `COC1/C=C/C(C)C(C(C)C(OC)C(C)CCC(=O)C(C)C(C/C=C/N(C)C=O)OC)OC(=O)/C=C/C=C(\C)CC(OC)C(OC)C2=CC(=O)O[C@@H](C(C)C(OC)CC(OC)/C=C/C(C)C(O)C1)[C@H]2O` (some centres not stated), the TGI with MALME-3M melanoma is 0.493 µM; in the assay with BT-549 breast it was 0.544 µM; in the assay on HT29 colon, 2.15 µM; with NCI-H460 lung, 0.553 µM; in the assay on HOP-62 NSCLC, 0.218 µM; with NCI-H23 lung, 0.373 µM. For the same compound, the values for the TGI with 786-0 renal, in the assay with SK-MEL-2 melanoma and with NCI-H226 lung were 0.434 µM, 0.388 µM and 0.244 µM, respectively.
Regarding `CC(=O)Nc1ccc(-c2nnc(SCC(=O)Nc3ccccc3C)o2)cc1`, the TGI in the assay on MALME-3M melanoma, with HT29 colon, in the assay with NCI-H460 lung, with CCRF-CEM leukemia, in the assay with HOP-62 NSCLC and with NCI-H23 lung was above 100 µM each time. For the same compound, the TGI in the assay with 786-0 renal, with SK-MEL-2 melanoma and in the assay on NCI-H226 lung was above 100 µM each time.
Take `COc1nc2[nH]ccc2c(=O)n1C`: the TGI with MALME-3M melanoma, with HT29 colon, with NCI-H460 lung, in the assay with CCRF-CEM leukemia, in the assay with NCI-H23 lung and with SK-MEL-2 melanoma was above 100 µM in each case.
In the case of `CCS(=O)(=O)c1c2cc(OC)ccc2nc2ccc(OC)cc12`, the TGI in the assay on MALME-3M melanoma, with HT29 colon, in the assay with NCI-H460 lung, with CCRF-CEM leukemia, in the assay on HOP-62 NSCLC and in the assay on NCI-H23 lung was above 100 µM each time. Further, the TGI in the assay on 786-0 renal, in the assay with SK-MEL-2 melanoma and in the assay on NCI-H226 lung was above 100 µM in each case.
In the case of `O=C(Nc1cccc(-n2ccc3c(NC(=O)c4ccccc4)nccc32)c1)c1cc(N2CCOCC2)cc(C(F)(F)F)c1`, the GI50 was 1.25 µM with MALME-3M melanoma; 0.0312 µM in the assay on HT29 colon; 0.0374 µM with NCI-H460 lung; 0.168 µM in the assay with HOP-62 NSCLC; 0.613 µM with NCI-H23 lung; 0.167 µM in the assay with SK-MEL-2 melanoma. The GI50 in the assay on NCI-H226 lung was 0.36 µM. The TGI in the assay on MALME-3M melanoma was above 100 µM; with HT29 colon it was 0.446 µM; with NCI-H460 lung, above 36.9 µM; in the assay with HOP-62 NSCLC it was above 100 µM; in the assay with NCI-H23 lung, above 100 µM; in the assay on SK-MEL-2 melanoma, 3.82 µM.
Take `CC(C)(C)OC(=O)NCC(=O)N1CCCN(C(=O)CNC(=O)OC(C)(C)C)CC1`: the TGI in the assay on MALME-3M melanoma, with BT-549 breast, in the assay on HT29 colon, in the assay with NCI-H460 lung, in the assay on HOP-62 NSCLC and in the assay on NCI-H23 lung was above 100 µM each time. Further, the TGI in the assay with 786-0 renal, with SK-MEL-2 melanoma and in the assay with NCI-H226 lung was above 100 µM throughout.
`COc1cc(C(SCc2ccccc2)SCc2ccccc2)ccc1O`: the TGI in the assay with MALME-3M melanoma, with HT29 colon, with NCI-H460 lung, with CCRF-CEM leukemia, with HOP-62 NSCLC and in the assay with 786-0 renal was above 10 µM throughout. The TGI in the assay on SK-MEL-2 melanoma and in the assay with NCI-H226 lung was above 10 µM in each case.
Take `CN1CCCCC(C(O)(c2ccccc2)c2ccccc2)C1=O` (configuration not stated): the TGI with MALME-3M melanoma, in the assay with HT29 colon, in the assay on NCI-H460 lung, with CCRF-CEM leukemia, with HOP-62 NSCLC and in the assay on NCI-H23 lung was above 100 µM each time. The TGI in the assay with 786-0 renal, with SK-MEL-2 melanoma and in the assay with NCI-H226 lung was above 100 µM throughout.
In the case of `COc1ccc(C2c3cc4c(cc3OC(N3CCCCC3)C2C)OCO4)cc1` (configuration not stated), the TGI in the assay on HT29 colon, with NCI-H460 lung, with CCRF-CEM leukemia, with HOP-62 NSCLC, in the assay with NCI-H23 lung and in the assay with 786-0 renal was above 100 µM each time. In addition, the TGI with SK-MEL-2 melanoma is above 100 µM.
